Measured values as given in ChEMBL document CHEMBL4257449, “New N-(2-phenyl-4-oxo-1,3-thiazolidin-3-yl)-1,2-benzothiazole-3-carboxamides and acetamides as antimicrobial agents” (2017).
Converted amounts (≈) assume the structure as drawn.

Legend:
Salmonella typhimurium [1] = assay: Bactericidal activity against Salmonella typhimurium ATCC 13311 incubated for 24 hrs followed by serial sub-cultivation and measured after 24 hrs by microdilution method; assay type: functional, Salmonella enterica subsp. enterica serovar Typhimurium
Staphylococcus aureus [2] = assay: Antibacterial activity against Staphylococcus aureus ATCC 6538 after 24 hrs by microdilution method; assay type: functional; settings: ATCC 6538, 24 h
Pseudomonas aeruginosa [3] = assay: Antibacterial activity against Pseudomonas aeruginosa ATCC 27853 after 24 hrs by microdilution method; assay type: functional; settings: ATCC 27853, 24 h
Aspergillus niger [4] = assay: Fungicidal activity against Aspergillus niger ATCC 6275 incubated for 72 hrs followed by serial sub-cultivation for 72 hrs and measured after 72 hrs by serial dilution method; assay type: functional
Bacillus cereus [5] = assay: Bactericidal activity against Bacillus cereus incubated for 24 hrs followed by serial sub-cultivation and measured after 24 hrs by microdilution method; assay type: functional
Pseudomonas aeruginosa [6] = assay: Bactericidal activity against Pseudomonas aeruginosa ATCC 27853 incubated for 24 hrs followed by serial sub-cultivation and measured after 24 hrs by microdilution method; assay type: functional
Trichoderma viride [7] = assay: Fungicidal activity against Trichoderma viride IAM 5061 incubated for 72 hrs followed by serial sub-cultivation for 72 hrs and measured after 72 hrs by serial dilution method; assay type: functional
Aspergillus fumigatus [8] = assay: Fungicidal activity against Aspergillus fumigatus incubated for 72 hrs followed by serial sub-cultivation for 72 hrs and measured after 72 hrs by serial dilution method; assay type: functional
Bacillus cereus [9] = assay: Antibacterial activity against Bacillus cereus after 24 hrs by microdilution method; assay type: functional
Salmonella typhimurium [10] = assay: Antibacterial activity against Salmonella typhimurium ATCC 13311 after 24 hrs by microdilution method; assay type: functional, Salmonella enterica subsp. enterica serovar Typhimurium; settings: Salmonella enterica, ATCC 13311, 24 h
Micrococcus flavus [11] = assay: Antibacterial activity against Micrococcus flavus ATCC 10240 after 24 hrs by microdilution method; assay type: functional; settings: ATCC 10240, 24 h
Aspergillus fumigatus [12] = assay: Antifungal activity against Aspergillus fumigatus after 72 hrs by serial dilution method; assay type: functional
Talaromyces funiculosus [13] = assay: Fungicidal activity against Penicillium funiculosum ATCC 36839 incubated for 72 hrs followed by serial sub-cultivation for 72 hrs and measured after 72 hrs by serial dilution method; assay type: functional
Penicillium ochrochloron [14] = assay: Fungicidal activity against Penicillium ochrochloron ATCC 9112 incubated for 72 hrs followed by serial sub-cultivation for 72 hrs and measured after 72 hrs by serial dilution method; assay type: functional
Enterobacter cloacae [15] = assay: Antibacterial activity against Enterobacter cloacae after 24 hrs by microdilution method; assay type: functional
Aspergillus versicolor [16] = assay: Fungicidal activity against Aspergillus versicolor ATCC 11730 incubated for 72 hrs followed by serial sub-cultivation for 72 hrs and measured after 72 hrs by serial dilution method; assay type: functional
Listeria monocytogenes [17] = assay: Bactericidal activity against Listeria monocytogenes NCTC 7973 incubated for 24 hrs followed by serial sub-cultivation and measured after 24 hrs by microdilution method; assay type: functional
Candida albicans [18] = assay: Antifungal activity against Candida albicans after 72 hrs by serial dilution method; assay type: functional
Micrococcus flavus [19] = assay: Bactericidal activity against Micrococcus flavus ATCC 10240 incubated for 24 hrs followed by serial sub-cultivation and measured after 24 hrs by microdilution method; assay type: functional
Aspergillus versicolor [20] = assay: Antifungal activity against Aspergillus versicolor ATCC 11730 after 72 hrs by serial dilution method; assay type: functional; settings: ATCC 11730, 72 h
Talaromyces funiculosus [21] = assay: Antifungal activity against Penicillium funiculosum ATCC 36839 after 72 hrs by serial dilution method; assay type: functional; settings: ATCC 36839, 72 h
Candida albicans [22] = assay: Fungicidal activity against Candida albicans incubated for 72 hrs followed by serial sub-cultivation for 72 hrs and measured after 72 hrs by serial dilution method; assay type: functional
Penicillium ochrochloron [23] = assay: Antifungal activity against Penicillium ochrochloron ATCC 9112 after 72 hrs by serial dilution method; assay type: functional; settings: ATCC 9112, 72 h
Enterobacter cloacae [24] = assay: Bactericidal activity against Enterobacter cloacae incubated for 24 hrs followed by serial sub-cultivation and measured after 24 hrs by microdilution method; assay type: functional
Escherichia coli [25] = assay: Antibacterial activity against Escherichia coli ATCC 35210 after 24 hrs by microdilution method; assay type: functional; settings: ATCC 35210, 24 h
Aspergillus ochraceus [26] = assay: Antifungal activity against Aspergillus ochraceus ATCC 12066 after 72 hrs by serial dilution method; assay type: functional; settings: ATCC 12066, 72 h
Aspergillus ochraceus [27] = assay: Fungicidal activity against Aspergillus ochraceus ATCC 12066 incubated for 72 hrs followed by serial sub-cultivation for 72 hrs and measured after 72 hrs by serial dilution method; assay type: functional
Staphylococcus aureus [28] = assay: Bactericidal activity against Staphylococcus aureus ATCC 6538 incubated for 24 hrs followed by serial sub-cultivation and measured after 24 hrs by microdilution method; assay type: functional
Aspergillus niger [29] = assay: Antifungal activity against Aspergillus niger ATCC 6275 after 72 hrs by serial dilution method; assay type: functional; settings: ATCC 6275, 72 h
Trichoderma viride [30] = assay: Antifungal activity against Trichoderma viride IAM 5061 after 72 hrs by serial dilution method; assay type: functional; settings: IAM 5061, 72 h
Escherichia coli [31] = assay: Bactericidal activity against Escherichia coli ATCC 35210 incubated for 24 hrs followed by serial sub-cultivation and measured after 24 hrs by microdilution method; assay type: functional
Listeria monocytogenes [32] = assay: Antibacterial activity against Listeria monocytogenes NCTC 7973 after 24 hrs by microdilution method; assay type: functional; settings: NCTC 7973, 24 h

| SMILES | MBC99.5 (Salmonella typhimurium [1]) | MIC (Staphylococcus aureus [2]) | MIC (Pseudomonas aeruginosa [3]) | MFC99.5 (Aspergillus niger [4]) | MBC99.5 (Bacillus cereus [5]) | MBC99.5 (Pseudomonas aeruginosa [6]) | MFC99.5 (Trichoderma viride [7]) | MFC99.5 (Aspergillus fumigatus [8]) | MIC (Bacillus cereus [9]) | MIC (Salmonella typhimurium [10]) | MIC (Micrococcus flavus [11]) | MIC (Aspergillus fumigatus [12]) | MFC99.5 (Talaromyces funiculosus [13]) | MFC99.5 (Penicillium ochrochloron [14]) | MIC (Enterobacter cloacae [15]) | MFC99.5 (Aspergillus versicolor [16]) | MBC99.5 (Listeria monocytogenes [17]) | MIC (Candida albicans [18]) | MBC99.5 (Micrococcus flavus [19]) | MIC (Aspergillus versicolor [20]) | further results |
| --- | --- | --- | --- | --- | --- | --- | --- | --- | --- | --- | --- | --- | --- | --- | --- | --- | --- | --- | --- | --- | --- |
| O=C(NN1C(=O)CSC1c1ccccc1F)c1nsc2ccccc12 (centres undefined) | 40.2 ×10⁻² umol/ml | 214 µM (≈ 79.9 µg/mL) | 214 µM (≈ 79.9 µg/mL) | 21.4 ×10⁻² umol/ml | 40.2 ×10⁻² umol/ml | 40.2 ×10⁻² umol/ml | 5.4 ×10⁻² umol/ml | 21.4 ×10⁻² umol/ml | 214 µM (≈ 79.9 µg/mL) | 214 µM (≈ 79.9 µg/mL) | 295 µM (≈ 110 µg/mL) | 107 µM (≈ 40 µg/mL) | 21.4 ×10⁻² umol/ml | 10.7 ×10⁻² umol/ml | 214 µM (≈ 79.9 µg/mL) | 40.2 ×10⁻² umol/ml | 40.2 ×10⁻² umol/ml | 107 µM (≈ 40 µg/mL) | 40.2 ×10⁻² umol/ml | 214 µM (≈ 79.9 µg/mL) | MIC (Talaromyces funiculosus [21]): 107 µM (≈ 40 µg/mL); MFC99.5 (Candida albicans [22]): 21.4 ×10⁻² umol/ml; MIC (Penicillium ochrochloron [23]): 54 µM (≈ 20.2 µg/mL); MBC99.5 (Enterobacter cloacae [24]): 40.2 ×10⁻² umol/ml; MIC (Escherichia coli [25]): 214 µM (≈ 79.9 µg/mL); MIC (Aspergillus ochraceus [26]): 80 µM (≈ 29.9 µg/mL); MFC99.5 (Aspergillus ochraceus [27]): 21.4 ×10⁻² umol/ml; MBC99.5 (Staphylococcus aureus [28]): 40.2 ×10⁻² umol/ml; MIC (Aspergillus niger [29]): 107 µM (≈ 40 µg/mL); MIC (Trichoderma viride [30]): 27 µM (≈ 10.1 µg/mL); MBC99.5 (Escherichia coli [31]): 40.2 ×10⁻² umol/ml; MIC (Listeria monocytogenes [32]): 214 µM (≈ 79.9 µg/mL) |
| O=C(NN1C(=O)CSC1c1c(F)cccc1Cl)c1nsc2ccccc12 (centres undefined) | 36.8 ×10⁻² umol/ml | 196 µM (≈ 79.9 µg/mL) | 196 µM (≈ 79.9 µg/mL) | 73.5 ×10⁻² umol/ml | 36.8 ×10⁻² umol/ml | 36.8 ×10⁻² umol/ml | 18.4 ×10⁻² umol/ml | 73.5 ×10⁻² umol/ml | 196 µM (≈ 79.9 µg/mL) | 196 µM (≈ 79.9 µg/mL) | 270 µM (≈ 110 µg/mL) | 368 µM (≈ 150 µg/mL) | 73.5 ×10⁻² umol/ml | 85.8 ×10⁻² umol/ml | 368 µM (≈ 150 µg/mL) | 73.5 ×10⁻² umol/ml | 36.8 ×10⁻² umol/ml | 735 µM (≈ 300 µg/mL) | 36.8 ×10⁻² umol/ml | 184 µM (≈ 75 µg/mL) | MIC (Talaromyces funiculosus [21]): 368 µM (≈ 150 µg/mL); MFC99.5 (Candida albicans [22]): 85.8 ×10⁻² umol/ml; MIC (Penicillium ochrochloron [23]): 368 µM (≈ 150 µg/mL); MBC99.5 (Enterobacter cloacae [24]): 73.5 ×10⁻² umol/ml; MIC (Escherichia coli [25]): 270 µM (≈ 110 µg/mL); MIC (Aspergillus ochraceus [26]): 368 µM (≈ 150 µg/mL); MFC99.5 (Aspergillus ochraceus [27]): 73.5 ×10⁻² umol/ml; MBC99.5 (Staphylococcus aureus [28]): 36.8 ×10⁻² umol/ml; MIC (Aspergillus niger [29]): 368 µM (≈ 150 µg/mL); MIC (Trichoderma viride [30]): 138 µM (≈ 56.3 µg/mL); MBC99.5 (Escherichia coli [31]): 36.8 ×10⁻² umol/ml; MIC (Listeria monocytogenes [32]): 270 µM (≈ 110 µg/mL) |
